{
  "source": "patent US20220146497A1",
  "about": "“Method of Modulating a Fibrotic Condition” (The Procter & Gamble Company, priority 2019, published 2022)",
  "key": {"[1]": {"test_system": "COL1A1", "experiment": "Red-COL1A1 mCherry reporter assay (fluorescence from reporter downstream of the endogenous COL1A1 promoter)", "type": "cell-based, human", "details": "increasing doses, immortalized tertBJ fibroblasts, FIG. 3A", "excerpt": "In this example, RNA interference (“RNAi”) screening was used to identify genes that appear to inhibit collagen synthesis. Immortalized human skin fibroblasts (BJhTERT, available from ATCC, Manassas, Va. were modified to place an mCherry reporter gene downstream of the endogenous promoter for COL1A1 using […] (TALENs). COL1A1 is well known for its role in the synthesis of Type I collagen, sometimes referred to as collagen I, which is a fibrillar collagen that accounts for over 90% of the collagen found in the human body. The reporter gene codes for the mCherry RFP, which can be quantitated using known fluorescent protein detection techniques. Transforming growth factor beta (“TGFβ”), a well-known COL1A1 activating cytokine, was used in a fluorescence-activated cell sorting (“FACS”) technique to select for a cell line with low endogenous expression and high levels of inducible expression of the mCherry gene. […]\nAutomated image acquisition and analysis was used to quantitate the fluorescent protein. […] Images were analyzed using METAXPRESS brand high-content image analysis software from Molecular Devices. The percentage of cells with positive nuclear-localizing mCherry signal above background was determined using the “Translocation-Enhanced” module. […]\nThis increased fluorescence directly correlates to increased collagen synthesis. […]"}, "[2]": {"test_system": "immortalized tertBJ fibroblasts cells", "experiment": "Cell count by DAPI staining of nuclei (toxicity)", "type": "cell-based, human", "details": "increasing concentrations, FIG. 3B", "experimental": "This increased fluorescence directly correlates to increased collagen synthesis. The results of the positive control (TGFβ), the vehicle control for the TGFβ (Media Control), and the vehicle control for the alpha-ergocryptine (DMSO control) are also illustrated in FIG. 3A. […] Cell count was determined by staining the nuclei with 4′,6-diamidino-2-phenylindole (DAPI), which is a fluorescent stain that binds strongly to adenine-thymine rich regions in DNA. DAPI staining is a well-known technique for determining cell count in fluorescence microscopy."}},
  "data": [
    {"smiles": "CC(C)C[C@H]1C(=O)N2CCC[C@H]2[C@]2(O)O[C@](NC(=O)[C@@H]3C=C4c5cccc6[nH]cc(c56)C[C@H]4N(C)C3)(C(C)C)C(=O)N12", "note": "[alpha-ergocryptine]", "values": [
      {"measurement": "COL1A1 expression (fluorescence of mCherry reporter)", "setting": "[1]", "value": "increased COL1A1 expression"},
      {"measurement": "toxicity as determined by cell counts (DAPI)", "setting": "[2]", "value": "not toxic"}
    ]}
  ]
}
